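Growth conditions: 96-well plates. Treatment: test compound, 48 hours, 5 concentrations. Analysis: linear interpolation between bracketing concentrations; unreached endpoints set to highest concentration. TGI marks complete inhibition of growth.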
Columns and labels:
Test in all cases: growth of human tumour cells (NCI), 48 h
[1] = tested on: HCT-15 colon
[2] = tested on: K-562 leukemia
[3] = tested on: TK-10 renal
[4] = tested on: MALME-3M melanoma
[5] = tested on: HCT-116 colon
[6] = tested on: HT29 colon
[7] = tested on: OVCAR-8 ovarian
[8] = tested on: M14 melanoma
[9] = tested on: KM12 colon
[10] = tested on: NCI-H226 lung
[11] = tested on: UACC-257 melanoma
[12] = tested on: A549 NSCLC
[13] = tested on: COLO 205 colon
[14] = tested on: NCI/ADR-RES ovarian
[15] = tested on: MCF7 breast
[16] = tested on: MDA-MB-231 breast
[17] = tested on: MDA-MB-435
[18] = tested on: OVCAR-5 ovarian
[19] = tested on: HS 578T breast

SMILES | TGI [1] | TGI [2] | TGI [3] | TGI [4] | TGI [5] | TGI [6] | TGI [7] | TGI [8] | TGI [9] | TGI [10] | TGI [11] | TGI [12] | TGI [13] | TGI [14] | TGI [15] | TGI [16] | TGI [17] | TGI [18] | TGI [19]
CCOC(=O)[C@H](Cc1ccccc1)NC(=O)c1nc[nH]c1[N+](=O)[O-] | > 100 µM | > 100 µM | > 100 µM | > 100 µM | > 100 µM | > 100 µM | > 100 µM | > 100 µM | > 100 µM | > 100 µM | > 100 µM | > 100 µM | > 100 µM |  |  |  |  |  | 
CN(C)S(=O)(=O)n1ccnc1 | > 100 µM | > 100 µM | > 100 µM | > 100 µM | > 100 µM |  |  | > 100 µM | > 100 µM | > 100 µM | > 100 µM | > 100 µM | > 100 µM | > 100 µM | > 100 µM | > 100 µM | > 100 µM | > 100 µM | 
OCC1C(O)C(O)[C@@H]2SCCN12 (stereo partly drawn) | > 100 µM | > 100 µM | > 100 µM | > 100 µM | > 100 µM | > 100 µM | > 100 µM | > 100 µM | > 100 µM | > 100 µM | > 100 µM | > 100 µM | > 100 µM | > 100 µM |  | > 100 µM | > 100 µM | > 100 µM | > 100 µM
Cn1c(=O)c2[nH]c(/N=N\n3ccc4ccccc43)nc2n(C)c1=O | > 100 µM | > 100 µM | > 100 µM | > 100 µM | > 100 µM | > 100 µM | > 100 µM | > 100 µM | > 100 µM | > 100 µM | > 100 µM | > 100 µM | > 100 µM | > 100 µM |  | > 100 µM | > 100 µM | > 100 µM | > 100 µM
COC(=O)C1=C(O)C(C(=O)OC)[C@]2(O)[C@H](C(=O)OC)[C@H]1C[C@@H](c1ccccc1OC)[C@H]2C(=O)OC (stereo partly drawn) | 13.5 µM | > 38.9 µM | > 54.7 µM | 13.5 µM | 12.9 µM | 14.6 µM | 11.8 µM | 10.2 µM | 21.9 µM | 20.7 µM | > 51.6 µM | 21.7 µM | 13.3 µM | 8.89 µM |  | 29.7 µM | 9.79 µM | 16.4 µM | 11 µM
CNC(=S)NNC(=O)c1c(C)nc2sccn12 | > 100 µM | > 100 µM | > 100 µM | > 100 µM | > 100 µM | > 100 µM | > 100 µM |  | > 100 µM | > 100 µM | > 100 µM | > 100 µM | > 100 µM |  |  |  |  | > 100 µM | 
Nn1c(-c2ccccc2Nc2ccccc2-c2n[nH]c(=S)n2N)n[nH]c1=S | > 50 µM | > 50 µM | > 50 µM | > 50 µM | > 50 µM | > 50 µM | > 50 µM | > 50 µM | > 50 µM | > 50 µM | > 50 µM |  | > 50 µM | > 50 µM | > 50 µM |  | > 50 µM | > 50 µM | 
CCC(C)[C@H]1C(=O)N=C(N)N1C(=O)OCc1ccccc1 (stereo partly drawn) | > 100 µM | > 100 µM | > 100 µM | > 100 µM | > 100 µM | > 100 µM | > 100 µM |  | > 100 µM | > 100 µM | > 100 µM |  | > 100 µM | > 100 µM | > 100 µM | > 100 µM | > 100 µM | > 100 µM | 
CN(C)c1ccc(/C=C2\C[C@H]3[C@@H]4CCC5=CC(=O)CC[C@]5(C)[C@H]4CC[C@]3(C)C2=O)cc1 | > 100 µM | > 100 µM | > 100 µM | 72.9 µM | > 100 µM | > 100 µM | > 100 µM | > 100 µM | > 100 µM | > 100 µM | 67.3 µM | > 100 µM | 64.8 µM | > 100 µM | > 100 µM | > 100 µM |  | > 100 µM | > 100 µM
CC(C)N(CCCNc1c2ccccc2nc2cccc([N+](=O)[O-])c12)C(C)C | 0.012 µM | 62.3 µM |  |  | 0.391 µM | 0.0935 µM | < 0.0467 µM | < 0.01 µM |  | 0.325 µM | < 0.0508 µM | 0.0473 µM | < 0.015 µM | 3.68 µM | 13.2 µM | < 0.01 µM | < 0.018 µM |  | 
CCOC(=O)CSc1[nH]c2nc(C)nc(Cl)c2c1C#N | > 10 µM | > 10 µM | > 10 µM | > 10 µM |  | > 10 µM | > 10 µM | > 10 µM | > 10 µM |  | > 10 µM | > 10 µM | > 10 µM |  | > 10 µM | > 10 µM | > 10 µM |  | 
CSc1nc2nc(C)c(C)nc2c(=O)[nH]1 | > 100 µM | > 100 µM | > 100 µM | > 100 µM | > 100 µM | > 100 µM | > 100 µM | > 100 µM | > 100 µM |  | > 100 µM | > 100 µM | > 100 µM |  |  |  |  | > 100 µM | 
O=C(CC(=O)C(=O)CC(=O)OCc1ccccc1)OCc1ccccc1 | > 100 µM | > 100 µM | > 100 µM | > 100 µM | > 100 µM | > 100 µM | > 100 µM | > 100 µM |  |  |  | > 100 µM | > 100 µM |  |  |  |  | > 100 µM | 

— PubChem BioAssay (NCI)
